# pEC50, pIC50: −log10 of the molar value.
# Key:
# Glucocorticoid receptor [1] = molecular target: T1, Glucocorticoid receptor (Homo sapiens, UniProt P04150); experiment: Agonist activity at human GR expressed in CHO-K1 cells incubated for 20 hrs by luciferase reporter gene assay; type: cell-based
# T1 sequence (P04150 whole entry): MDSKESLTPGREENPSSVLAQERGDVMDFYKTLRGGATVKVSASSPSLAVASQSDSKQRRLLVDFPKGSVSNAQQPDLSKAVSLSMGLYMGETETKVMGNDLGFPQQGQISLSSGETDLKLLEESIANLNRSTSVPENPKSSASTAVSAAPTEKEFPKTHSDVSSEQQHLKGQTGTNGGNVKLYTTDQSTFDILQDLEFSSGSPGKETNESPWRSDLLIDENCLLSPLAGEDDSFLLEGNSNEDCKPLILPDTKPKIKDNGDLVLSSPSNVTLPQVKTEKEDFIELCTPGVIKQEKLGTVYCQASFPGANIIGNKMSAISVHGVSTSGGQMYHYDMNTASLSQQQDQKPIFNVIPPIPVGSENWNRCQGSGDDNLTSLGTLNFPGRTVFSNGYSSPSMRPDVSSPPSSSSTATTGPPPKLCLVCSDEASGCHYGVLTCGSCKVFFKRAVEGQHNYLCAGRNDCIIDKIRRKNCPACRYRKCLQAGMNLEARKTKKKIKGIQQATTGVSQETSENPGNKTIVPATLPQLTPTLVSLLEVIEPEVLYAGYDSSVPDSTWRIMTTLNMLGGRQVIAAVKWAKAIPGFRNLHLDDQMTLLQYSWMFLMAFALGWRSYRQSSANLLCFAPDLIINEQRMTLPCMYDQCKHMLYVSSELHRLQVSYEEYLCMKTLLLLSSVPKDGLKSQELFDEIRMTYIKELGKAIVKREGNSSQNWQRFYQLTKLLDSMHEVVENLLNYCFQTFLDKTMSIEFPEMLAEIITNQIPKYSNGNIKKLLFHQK
# androgen receptor (AR) = molecular target: T2, androgen receptor (AR) (Homo sapiens, UniProt P10275); experiment: Agonist activity at AR (unknown origin) expressed in human LNCaP cells incubated for 20 hrs by luciferase reporter gene assay relative to mifepristone; type: cell-based; conditions: human LNCaP cells expressing AR
# T2 sequence (P10275 whole entry): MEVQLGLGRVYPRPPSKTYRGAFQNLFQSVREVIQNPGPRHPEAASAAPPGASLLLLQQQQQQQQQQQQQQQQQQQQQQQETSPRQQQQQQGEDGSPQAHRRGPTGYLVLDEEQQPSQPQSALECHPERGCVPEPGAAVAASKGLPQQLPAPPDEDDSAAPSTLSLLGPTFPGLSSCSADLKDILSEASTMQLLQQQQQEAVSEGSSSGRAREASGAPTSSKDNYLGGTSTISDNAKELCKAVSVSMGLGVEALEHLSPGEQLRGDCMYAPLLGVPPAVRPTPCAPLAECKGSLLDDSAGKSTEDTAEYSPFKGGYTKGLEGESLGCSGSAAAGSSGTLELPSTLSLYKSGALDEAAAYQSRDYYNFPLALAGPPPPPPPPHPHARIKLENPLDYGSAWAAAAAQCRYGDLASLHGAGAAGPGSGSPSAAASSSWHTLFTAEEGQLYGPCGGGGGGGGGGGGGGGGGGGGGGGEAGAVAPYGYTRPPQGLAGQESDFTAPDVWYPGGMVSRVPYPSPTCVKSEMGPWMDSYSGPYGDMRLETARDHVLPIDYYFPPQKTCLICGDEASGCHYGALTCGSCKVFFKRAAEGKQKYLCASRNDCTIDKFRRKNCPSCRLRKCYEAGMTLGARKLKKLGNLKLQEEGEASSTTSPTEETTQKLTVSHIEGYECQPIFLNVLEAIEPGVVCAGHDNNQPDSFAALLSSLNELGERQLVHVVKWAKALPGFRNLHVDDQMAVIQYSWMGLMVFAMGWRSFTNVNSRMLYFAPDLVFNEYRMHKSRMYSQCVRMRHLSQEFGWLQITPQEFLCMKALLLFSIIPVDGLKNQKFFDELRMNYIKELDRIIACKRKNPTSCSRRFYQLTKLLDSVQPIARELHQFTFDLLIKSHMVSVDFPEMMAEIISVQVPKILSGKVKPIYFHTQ
# Glucocorticoid receptor [2] = molecular target: T1, Glucocorticoid receptor; experiment: Antagonist activity at human GR expressed in CHO-K1 cells assessed as reduction in dexamethasone-induced response incubated for 20 hrs by luciferase reporter gene assay; type: cell-based
# Androgen receptor = molecular target: T3, Androgen receptor (Homo sapiens, UniProt P10275); experiment: Agonist activity at AR (unknown origin) expressed in human LNCaP cells incubated for 20 hrs by luciferase reporter gene assay; type: cell-based
# T3 sequence (P10275 whole entry): T2 sequence (P10275 whole entry)
# [3] = molecular target: T4, glucocorticoid receptor (GR) (Homo sapiens, UniProt P04150); experiment: Agonist activity at human GR expressed in CHO-K1 cells incubated for 20 hrs by luciferase reporter gene assay relative to dexamethasone; type: cell-based; conditions: CHO-K1 cells expressing human GR
# T4 sequence (P04150 whole entry): T1 sequence (P04150 whole entry)
# [4] = Cmax in rat at 5 mg/kg, po; type: ADME, organism-based; design: dose 5 mg/kg, route oral; conditions: in vivo
# [5] = Volume of distribution at steady state in rat at 0.5 mg/kg, iv; type: ADME, organism-based; conditions: in vivo, read-out: Vdss
# [6] = AUC in rat at 5 mg/kg, po; type: ADME, organism-based; conditions: in vivo
# [7] = Half life in rat at 0.5 mg/kg, iv; type: ADME, organism-based; conditions: in vivo
# [8] = Clearance in rat at 0.5 mg/kg, iv; type: ADME, organism-based; conditions: in vivo
# [9] = Oral bioavailability in rat at 5 mg/kg; type: ADME, organism-based; conditions: in vivo
Compound,pEC50 (Glucocorticoid receptor [1]),Emax at 20 h (androgen receptor (AR)),pIC50 (Glucocorticoid receptor [2]),pEC50 (Androgen receptor),Emax at 20 h [3],Cmax [4],Vd [5],AUC [6],half-life [7],clearance [8],bioavailability [9]
Cc1ccc([C@H]2C[C@@]3(C)[C@@H](CC[C@@]3(O)C#CC(C)(C)C)[C@@H]3CCC4=CC(=O)CCC4=C32)cc1,< 5.60,16%,7.79,< 5.60,1.5%,,,,,,
CN(C)c1cc(F)c([C@H]2C[C@@]3(C)[C@@H](CC[C@@]3(O)C#CC(C)(C)C)[C@@H]3CCC4=CC(=O)CCC4=C32)c(F)c1,< 5.60,11%,7.91,< 5.60,1.3%,,,,,,
CC(C)c1ccc([C@H]2C[C@@]3(C)[C@@H](CC[C@@]3(O)C#CC(C)(C)C)[C@@H]3CCC4=CC(=O)CCC4=C32)cc1,< 5.60,25%,7.80,< 5.60,1.5%,,,,,,
CC(C)(C)C#C[C@]1(O)CC[C@H]2[C@@H]3CCC4=CC(=O)CCC4=C3[C@@H](c3ccc(N4CCS(=O)(=O)CC4)cc3)C[C@@]21C,< 5.60,23%,7.78,< 5.60,1.8%,,,,,,
CC(C)(C)C#C[C@]1(O)CC[C@H]2[C@@H]3CCC4=CC(=O)CCC4=C3[C@@H](c3ccc(N4CCCC4)cc3)C[C@@]21C,< 5.60,13.3%,7.71,< 5.60,1.2%,21 ng/mL,1.5 L/kg,167 ng·h/mL,3.6 h,4.67 mL/min/kg,0.7%
CN(C)c1ccc([C@H]2C[C@@]3(C)[C@@H](CC[C@@]3(O)C#CC(F)(F)F)[C@@H]3CCC4=CC(=O)CCC4=C32)cc1,< 5.60,117%,7.95,7.27,2.4%,,,,,,
CN(C)c1ccc([C@H]2C[C@@]3(C)[C@@H](CC[C@@]3(O)C#CC(C)(C)C)[C@@H]3CCC4=CC(=O)CC[C@@H]4[C@H]32)cc1,< 5.60,22%,8.25,6.65,2.2%,,,,,,
CC#C[C@]1(O)CC[C@H]2[C@@H]3CCC4=CC(=O)CCC4=C3[C@@H](c3ccccc3)C[C@@]21C,7.76,27%,7.85,< 5.60,7%,,,,,,
COc1cc([C@H]2C[C@@]3(C)[C@@H](CC[C@@]3(O)C#CC(C)(C)C)[C@@H]3CCC4=CC(=O)CCC4=C32)ccc1N(C)C,< 5.60,5.7%,7.32,< 5.60,1%,,,,,,
CCc1ccc([C@H]2C[C@@]3(C)[C@@H](CC[C@@]3(O)C#CC(C)(C)C)[C@@H]3CCC4=CC(=O)CCC4=C32)cc1,< 5.60,20%,7.76,< 5.60,1.5%,,1.7 L/kg,,3.4 h,6.83 mL/min/kg,0%
COc1ccc([C@H]2C[C@@]3(C)[C@@H](CC[C@@]3(O)C#CC(C)(C)C)[C@@H]3CCC4=CC(=O)CCC4=C32)cc1,< 5.60,9.8%,7.78,< 5.60,1.1%,,,,,,
CCC#C[C@]1(O)CC[C@H]2[C@@H]3CCC4=CC(=O)CCC4=C3[C@@H](c3ccc(N(C)C)cc3)C[C@@]21C,< 5.60,101%,8.07,7.52,2.1%,,,,,,
Cc1cc([C@H]2C[C@@]3(C)[C@@H](CC[C@@]3(O)C#CC(C)(C)C)[C@@H]3CCC4=CC(=O)CCC4=C32)ccc1N(C)C,< 5.60,17%,7.55,< 5.60,1.2%,,,,,,
CC(C)(C)C#C[C@]1(O)CC[C@H]2[C@@H]3CCC4=CC(=O)CCC4=C3[C@@H](c3ccc(C4(C)COC4)cc3)C[C@@]21C,< 5.60,11%,8.02,< 5.60,2.2%,59 ng/mL,6.7 L/kg,123 ng·h/mL,4.4 h,50 mL/min/kg,7.2%
CN(C)c1c(F)cc([C@H]2C[C@@]3(C)[C@@H](CC[C@@]3(O)C#CC(C)(C)C)[C@@H]3CCC4=CC(=O)CCC4=C32)cc1F,< 5.60,8.8%,7.37,< 5.60,1.3%,,,,,,
CC#C[C@]1(O)CC[C@H]2[C@@H]3CCC4=CC(=O)CCC4=C3[C@@H](c3cccc(N(C)C)c3)C[C@@]21C,< 5.60,5.8%,7.19,< 5.60,1.5%,,,,,,
COC(C)(C)C#C[C@]1(O)CC[C@H]2[C@@H]3CCC4=CC(=O)CC[C@@H]4[C@H]3[C@@H](c3ccc(N(C)C)cc3)C[C@@]21C,< 5.60,10.6%,7.84,< 5.60,1.7%,295 ng/mL,7.2 L/kg,544 ng·h/mL,2.4 h,83.3 mL/min/kg,54%
CC(C)C#C[C@]1(O)CC[C@H]2[C@@H]3CCC4=CC(=O)CCC4=C3[C@@H](c3ccc(N(C)C)cc3)C[C@@]21C,< 5.60,50%,7.59,< 5.60,1.8%,,,,,,
CC#C[C@]1(O)CC[C@H]2[C@@H]3CCC4=CC(=O)CCC4=C3[C@@H](CC)C[C@@]21C,7.24,47%,< 5.30,< 5.60,36%,,,,,,
CC#C[C@]1(O)CC[C@H]2[C@@H]3CCC4=CC(=O)CCC4=C3[C@@H](c3ccc(C(C)C)cc3)C[C@@]21C,< 5.60,198%,8.71,7.89,3.1%,,,,,,
CC#C[C@]1(O)CC[C@H]2[C@@H]3CCC4=CC(=O)CCC4=C3[C@@H](C3CCCCC3)C[C@@]21C,< 5.60,26%,7.74,< 5.60,9.3%,,,,,,
CC(C)(C)C#C[C@]1(O)CC[C@H]2[C@@H]3CCC4=CC(=O)CCC4=C3[C@@H](c3ccc(N4CCOCC4)cc3)C[C@@]21C,< 5.60,18.7%,7.88,< 5.60,1.5%,,,,,,
CN(C)c1cccc([C@H]2C[C@@]3(C)[C@@H](CC[C@@]3(O)C#CC(C)(C)C)[C@@H]3CCC4=CC(=O)CCC4=C32)c1,< 5.60,7.5%,6.69,< 5.60,1.3%,,,,,,

# — ChEMBL document CHEMBL4145686, “Discovery of a Potent and Selective Steroidal Glucocorticoid Receptor Antagonist (ORIC-101)” (J Med Chem, 2018)
